Measurements as given in ChEMBL document CHEMBL4414679, “Discovery of 4,6-pyrimidinediamine derivatives as novel dual EGFR/FGFR inhibitors aimed EGFR/FGFR1-positive NSCLC” (Eur J Med Chem, 2020).
Activity calls are given as the source filed them. No cut-off for these calls is given here.

How the values were obtained:
[1] = species: Homo sapiens; assay: Inhibition of cell migration in gefitinib-insensitive human HCC827GR cells incubated upto 72 hrs by wound healing assay; assay type: functional
[2] = tested on: Epidermal growth factor receptor (Homo sapiens), P00533 [L858R]; assay: Inhibition of recombinant human EGFR L858R mutant expressed in baculovirus at 10 uM using FAM-labelled peptide as substrate pre-incubated for 10 mins followed by substrate addition by mobility shift assay relative to control
[3] = molecular target: T1, Epidermal growth factor receptor (Homo sapiens, UniProt P00533); assay: Inhibition of N-terminal GST-tagged human EGFR (d746-750AA) expressed in baculovirus using FAM-labelled peptide as substrate pre-incubated for 10 mins followed by substrate addition by mobility shift assay
[4] = tested on: NCI-H1581; assay: Antiproliferative activity against human NCI-H1581 cells assessed as inhibition of cell growth at 10 uM incubated for 48 hrs by MTT assay relative to control; assay type: functional; conditions: NCI-H1581, 48 h
[5] = tested on: NCI-H226; assay: Antiproliferative activity against human NCI-H226 cells incubated for 48 hrs by MTT assay; assay type: functional, cell-based; conditions: NCI-H226, 48 h
[6] = species: Homo sapiens; assay: Induction of cell cycle arrest in gefitinib-insensitive human HCC827GR cells assessed as accumulation of cells at G1 measured after 24 hrs by flow cytometry; assay type: functional
[7] = Cmax in Sprague-Dawley rat at 30 mg/kg, po measured upto 24 hrs by UPLC-MS/MS; assay type: ADME, organism-based; parameters: dose 30 mg/kg, route oral; conditions: in vivo
[8] = Half-life in Sprague-Dawley rat at 30 mg/kg, po measured upto 24 hrs by UPLC-MS/MS; assay type: ADME, organism-based; conditions: in vivo
[9] = Tmax in Sprague-Dawley rat at 30 mg/kg, po measured upto 24 hrs by UPLC-MS/MS; assay type: ADME, organism-based; conditions: in vivo
[10] = molecular target: T1, Epidermal growth factor receptor; assay: Inhibition of EGFR in serum-starved human HCC827 cells assessed as reduction in EGF-induced AKT phosphorylation upto 10 uM incubated for 1 hr by Western blot analysis; assay type: cell-based
[11] = Antiproliferative activity against gefitinib-resistant human HCC827GR cells incubated for 48 hrs by MTT assay; assay type: functional
[12] = tested on: NCI-H226; assay: Inhibition of colony formation in human NCI-H226 cells measured after 24 hrs by crystal violet staining based assay; assay type: functional, cell-based
[13] = species: Homo sapiens; assay: Inhibition of colony formation in gefitinib-insensitive human HCC827GR cells measured after 24 hrs by crystal violet staining based assay; assay type: functional
[14] = tested on: NCI-H226; assay: Induction of apoptosis in human NCI-H226 cells assessed as early apoptotic cells at 1 uM measured after 24 hrs by Annexin-V/propidium iodide staining-based flow cytometric analysis (reference value: 0.8%); assay type: functional
[15] = tested on: NCI-H226; assay: Induction of apoptosis in human NCI-H226 cells assessed as viable cells at 5 uM measured after 24 hrs by Annexin-V/propidium iodide staining-based flow cytometric analysis (reference value: 93.4%); assay type: functional; conditions: NCI-H226, 24 h, read-out: Activity
[16] = tested on: NCI-H226; assay: Induction of apoptosis in human NCI-H226 cells assessed as early apoptotic cells at 5 uM measured after 24 hrs by Annexin-V/propidium iodide staining-based flow cytometric analysis (reference value: 0.8%); assay type: functional
[17] = tested on: NCI-H226; assay: Induction of apoptosis in human NCI-H226 cells assessed as late apoptotic cells at 5 uM measured after 24 hrs by Annexin-V/propidium iodide staining-based flow cytometric analysis (reference value: 2.8%); assay type: functional
[18] = Induction of apoptosis in gefitinib-insensitive human HCC827GR cells assessed as viable cells at 1 uM measured after 24 hrs by Annexin-V/propidium iodide staining-based flow cytometric analysis (reference value: 90.8%); assay type: functional; conditions: read-out: Activity
[19] = Induction of apoptosis in gefitinib-insensitive human HCC827GR cells assessed as early apoptotic cells at 1 uM measured after 24 hrs by Annexin-V/propidium iodide staining-based flow cytometric analysis (reference value: 1.9%); assay type: functional
[20] = Induction of apoptosis in gefitinib-insensitive human HCC827GR cells assessed as late apoptotic cells at 1 uM measured after 24 hrs by Annexin-V/propidium iodide staining-based flow cytometric analysis (reference value: 1.5%); assay type: functional
[21] = Induction of apoptosis in gefitinib-insensitive human HCC827GR cells assessed as late apoptotic cells at 5 uM measured after 24 hrs by Annexin-V/propidium iodide staining-based flow cytometric analysis (reference value: 1.5%); assay type: functional
[22] = Induction of apoptosis in gefitinib-insensitive human HCC827GR cells assessed as early apoptotic cells at 5 uM measured after 24 hrs by Annexin-V/propidium iodide staining-based flow cytometric analysis (reference value: 1.9%); assay type: functional
[23] = tested on: Mus musculus; assay: Down regulation of FGFR1 phosphorylation in BALB/c nude mouse xenografted with human HCC827GR cells at 15 mg/kg, ip dosed by western blot analysis; assay type: functional, organism-based
[24] = molecular target: T1, Epidermal growth factor receptor; assay: Inhibition of EGFR in gefitinib-insensitive human HCC827GR cells assessed as reduction in EGF-induced Akt phosphorylation upto 10 uM measured after 2 hrs by western blot analysis
[25] = molecular target: Tyrosine-protein kinase JAK3 (Homo sapiens) (UniProt P52333); assay: Inhibition of N-terminal GST tagged human JAK3 catalytic domain (795 to 1124 AA) expressed in baculovirus at 10 uM using FAM-labelled peptide as substrate pre-incubated for 10 mins followed by substrate addition by mobility shift assay relative to control
[26] = molecular target: Mitogen-activated protein kinase 3 (Homo sapiens) (UniProt P27361); assay: Inhibition of full length N-terminal GST-tagged human ERK1 (1 to 379 AA) expressed in Escherichia coli at 10 uM using FAM-labelled peptide as substrate pre-incubated for 10 mins followed by substrate addition by mobility shift assay relative to control
[27] = molecular target: Platelet-derived growth factor receptor beta (Homo sapiens) (UniProt P09619); assay: Inhibition of N-terminal GST tagged human PDGFRbeta cytoplasmic domain (557 to 1106 AA) expressed in baculovirus at 10 uM using FAM-labelled peptide as substrate pre-incubated for 10 mins followed by substrate addition by mobility shift assay relative to control
[28] = molecular target: CDK2/Cyclin A2 (Homo sapiens) (UniProt P24941+P20248); assay: Inhibition of CDK2/cyclin A2 (unknown origin) at 10 uM using FAM-labelled peptide as substrate pre-incubated for 10 mins followed by substrate addition by mobility shift assay relative to control; assay type: protein-complex assay
[29] = molecular target: CDK6/cyclin D3 (Homo sapiens) (UniProt P30281+Q00534); assay: Inhibition of N-terminal GST tagged truncated human CDK6 (1 to 326 AA) coexpressed with CyclinD3 (1 to 292 AA) in baculovirus at 10 uM using FAM-labelled peptide as substrate pre-incubated for 10 mins followed by substrate addition by mobility shift assay relative to control; assay type: protein-complex assay
[30] = molecular target: Mitogen-activated protein kinase 8 (Homo sapiens) (UniProt P45983); assay: Inhibition of human full length His-tagged JNK1 expressed in baculovirus expression system at 10 uM using FAM-labelled peptide as substrate pre-incubated for 10 mins followed by substrate addition by mobility shift assay relative to control
[31] = molecular target: Hepatocyte growth factor receptor (Homo sapiens) (UniProt P08581); assay: Inhibition of N-terminal GST-tagged human MET cytoplasmic domain (956 to 1360 AA) expressed in baculovirus at 10 uM using FAM-labelled peptide as substrate pre-incubated for 10 mins followed by substrate addition by mobility shift assay relative to control
Sequence of Hepatocyte growth factor receptor (Homo sapiens) (P08581 whole entry, the tested form may be a part): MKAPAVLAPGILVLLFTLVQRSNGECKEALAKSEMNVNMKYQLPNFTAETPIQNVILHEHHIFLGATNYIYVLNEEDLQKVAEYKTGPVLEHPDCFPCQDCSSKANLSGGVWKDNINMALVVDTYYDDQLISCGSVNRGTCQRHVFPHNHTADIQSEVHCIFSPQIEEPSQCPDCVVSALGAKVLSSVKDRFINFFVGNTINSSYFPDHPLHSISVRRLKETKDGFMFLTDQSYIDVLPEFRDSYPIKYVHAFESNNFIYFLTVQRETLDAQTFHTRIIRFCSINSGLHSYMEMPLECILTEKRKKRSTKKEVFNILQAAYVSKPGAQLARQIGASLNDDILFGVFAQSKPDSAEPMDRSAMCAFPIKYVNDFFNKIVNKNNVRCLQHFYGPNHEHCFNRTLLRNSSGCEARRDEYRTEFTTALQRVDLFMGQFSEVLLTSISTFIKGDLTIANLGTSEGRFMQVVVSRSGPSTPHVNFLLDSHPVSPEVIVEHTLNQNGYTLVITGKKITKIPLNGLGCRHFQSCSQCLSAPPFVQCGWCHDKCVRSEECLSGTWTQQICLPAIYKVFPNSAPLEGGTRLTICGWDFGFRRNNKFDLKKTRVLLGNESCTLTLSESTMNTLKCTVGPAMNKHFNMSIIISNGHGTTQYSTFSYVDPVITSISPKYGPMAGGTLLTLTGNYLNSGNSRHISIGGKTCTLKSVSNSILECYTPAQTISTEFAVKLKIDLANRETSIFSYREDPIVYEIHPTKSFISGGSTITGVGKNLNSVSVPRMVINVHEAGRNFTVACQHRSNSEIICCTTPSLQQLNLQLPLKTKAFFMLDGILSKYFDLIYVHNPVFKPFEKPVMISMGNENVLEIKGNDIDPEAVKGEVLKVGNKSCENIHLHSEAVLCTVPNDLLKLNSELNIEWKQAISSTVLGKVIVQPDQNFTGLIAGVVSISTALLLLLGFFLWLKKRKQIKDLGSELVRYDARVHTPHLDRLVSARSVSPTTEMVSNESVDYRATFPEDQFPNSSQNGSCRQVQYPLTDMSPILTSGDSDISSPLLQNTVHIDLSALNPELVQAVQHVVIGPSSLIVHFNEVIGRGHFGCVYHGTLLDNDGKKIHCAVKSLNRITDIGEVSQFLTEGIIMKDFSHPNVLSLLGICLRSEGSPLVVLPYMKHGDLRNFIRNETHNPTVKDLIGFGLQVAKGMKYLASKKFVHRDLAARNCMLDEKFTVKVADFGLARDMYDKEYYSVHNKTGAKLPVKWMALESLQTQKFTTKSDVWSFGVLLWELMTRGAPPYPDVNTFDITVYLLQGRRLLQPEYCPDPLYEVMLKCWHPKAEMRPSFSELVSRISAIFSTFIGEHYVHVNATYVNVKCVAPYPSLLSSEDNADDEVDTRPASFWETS

T1 sequence (P00533 whole entry): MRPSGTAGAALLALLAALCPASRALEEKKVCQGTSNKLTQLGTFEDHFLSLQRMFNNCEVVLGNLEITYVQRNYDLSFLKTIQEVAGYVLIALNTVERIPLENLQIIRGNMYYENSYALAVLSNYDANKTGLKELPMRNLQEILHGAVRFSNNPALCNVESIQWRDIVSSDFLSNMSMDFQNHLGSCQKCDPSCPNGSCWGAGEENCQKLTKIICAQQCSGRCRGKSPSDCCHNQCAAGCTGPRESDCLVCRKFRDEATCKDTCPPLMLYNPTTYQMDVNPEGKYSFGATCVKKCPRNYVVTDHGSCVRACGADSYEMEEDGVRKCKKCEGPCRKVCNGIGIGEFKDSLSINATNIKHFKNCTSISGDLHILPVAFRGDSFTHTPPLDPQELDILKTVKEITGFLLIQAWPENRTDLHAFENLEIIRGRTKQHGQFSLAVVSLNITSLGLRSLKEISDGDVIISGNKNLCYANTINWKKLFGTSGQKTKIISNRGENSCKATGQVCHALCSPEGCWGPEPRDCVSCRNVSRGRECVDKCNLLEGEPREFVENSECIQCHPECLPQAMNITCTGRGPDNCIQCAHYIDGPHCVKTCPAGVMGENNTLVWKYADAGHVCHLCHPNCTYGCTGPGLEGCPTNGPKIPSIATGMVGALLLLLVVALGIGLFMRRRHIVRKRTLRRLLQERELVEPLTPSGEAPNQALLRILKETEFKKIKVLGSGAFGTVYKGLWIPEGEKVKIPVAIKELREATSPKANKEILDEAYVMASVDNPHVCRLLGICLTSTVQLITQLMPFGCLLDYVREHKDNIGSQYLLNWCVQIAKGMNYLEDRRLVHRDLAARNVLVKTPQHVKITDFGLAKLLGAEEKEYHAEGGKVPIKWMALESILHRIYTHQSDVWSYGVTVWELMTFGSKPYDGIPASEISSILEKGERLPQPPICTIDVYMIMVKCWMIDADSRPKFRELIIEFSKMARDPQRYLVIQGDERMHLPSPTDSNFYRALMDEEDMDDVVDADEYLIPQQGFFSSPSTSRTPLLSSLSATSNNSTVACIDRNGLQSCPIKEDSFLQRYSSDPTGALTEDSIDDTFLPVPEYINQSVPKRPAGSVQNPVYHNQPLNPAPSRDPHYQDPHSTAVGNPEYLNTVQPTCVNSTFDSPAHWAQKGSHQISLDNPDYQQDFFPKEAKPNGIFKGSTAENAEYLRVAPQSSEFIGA
Sequence of Mitogen-activated protein kinase 8 (Homo sapiens) (P45983 whole entry, the tested form may be a part): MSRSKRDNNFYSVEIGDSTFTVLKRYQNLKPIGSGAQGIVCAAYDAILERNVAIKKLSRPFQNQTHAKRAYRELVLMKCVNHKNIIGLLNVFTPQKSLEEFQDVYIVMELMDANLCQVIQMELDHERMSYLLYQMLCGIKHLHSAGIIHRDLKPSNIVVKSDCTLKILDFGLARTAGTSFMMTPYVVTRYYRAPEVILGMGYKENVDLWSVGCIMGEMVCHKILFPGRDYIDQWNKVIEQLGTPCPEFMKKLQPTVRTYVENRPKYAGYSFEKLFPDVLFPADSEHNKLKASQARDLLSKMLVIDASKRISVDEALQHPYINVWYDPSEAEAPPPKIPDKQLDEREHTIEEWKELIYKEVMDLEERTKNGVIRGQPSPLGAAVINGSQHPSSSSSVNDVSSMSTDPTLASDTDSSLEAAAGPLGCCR
Sequence of Mitogen-activated protein kinase 3 (Homo sapiens) (P27361 whole entry, the tested form may be a part): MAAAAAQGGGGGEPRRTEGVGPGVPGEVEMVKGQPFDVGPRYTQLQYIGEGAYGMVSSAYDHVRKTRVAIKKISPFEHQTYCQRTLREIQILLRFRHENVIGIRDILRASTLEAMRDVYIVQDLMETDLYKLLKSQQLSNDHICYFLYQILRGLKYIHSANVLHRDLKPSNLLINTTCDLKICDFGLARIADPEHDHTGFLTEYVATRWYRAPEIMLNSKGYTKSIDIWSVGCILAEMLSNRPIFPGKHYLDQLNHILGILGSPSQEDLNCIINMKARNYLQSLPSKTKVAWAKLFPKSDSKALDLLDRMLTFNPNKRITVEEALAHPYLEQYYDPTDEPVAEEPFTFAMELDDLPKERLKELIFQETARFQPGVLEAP
Sequence of Epidermal growth factor receptor (Homo sapiens), P00533 [L858R] (P00533 whole entry L858R): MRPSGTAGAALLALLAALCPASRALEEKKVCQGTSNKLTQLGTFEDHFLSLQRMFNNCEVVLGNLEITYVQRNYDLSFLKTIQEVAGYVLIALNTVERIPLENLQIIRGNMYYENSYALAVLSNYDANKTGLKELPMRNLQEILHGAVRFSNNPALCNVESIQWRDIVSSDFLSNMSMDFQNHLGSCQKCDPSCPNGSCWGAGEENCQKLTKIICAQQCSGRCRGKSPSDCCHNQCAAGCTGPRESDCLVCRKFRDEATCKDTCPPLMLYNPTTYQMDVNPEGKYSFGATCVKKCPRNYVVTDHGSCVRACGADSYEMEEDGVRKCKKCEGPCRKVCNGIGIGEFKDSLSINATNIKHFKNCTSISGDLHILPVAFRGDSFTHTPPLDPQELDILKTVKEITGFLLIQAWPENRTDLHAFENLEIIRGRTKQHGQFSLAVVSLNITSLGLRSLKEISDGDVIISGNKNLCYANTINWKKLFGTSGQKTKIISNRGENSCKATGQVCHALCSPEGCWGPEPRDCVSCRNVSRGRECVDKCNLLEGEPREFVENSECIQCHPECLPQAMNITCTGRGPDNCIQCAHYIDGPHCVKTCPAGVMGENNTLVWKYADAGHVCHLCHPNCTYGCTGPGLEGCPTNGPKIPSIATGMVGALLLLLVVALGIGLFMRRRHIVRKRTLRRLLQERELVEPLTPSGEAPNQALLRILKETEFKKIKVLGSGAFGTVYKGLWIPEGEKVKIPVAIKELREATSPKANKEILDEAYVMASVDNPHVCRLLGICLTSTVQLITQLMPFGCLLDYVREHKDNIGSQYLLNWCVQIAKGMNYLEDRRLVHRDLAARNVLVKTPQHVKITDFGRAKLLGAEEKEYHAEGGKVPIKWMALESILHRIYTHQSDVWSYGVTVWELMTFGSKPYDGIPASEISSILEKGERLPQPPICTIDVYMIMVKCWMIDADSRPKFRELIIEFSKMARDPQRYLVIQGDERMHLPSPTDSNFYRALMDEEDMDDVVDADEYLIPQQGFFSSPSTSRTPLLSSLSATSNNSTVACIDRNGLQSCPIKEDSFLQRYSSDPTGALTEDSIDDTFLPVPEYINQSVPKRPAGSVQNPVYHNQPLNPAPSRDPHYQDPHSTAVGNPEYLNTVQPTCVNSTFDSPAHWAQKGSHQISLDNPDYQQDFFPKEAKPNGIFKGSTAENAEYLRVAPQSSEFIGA

For `COc1ccc(OC)c(Nc2cc(NC(=O)Nc3c(Cl)cccc3Cl)ncn2)c1`, which inhibition [1] is on record?
Its inhibition is “Dose-dependent effect”.

What about the inhibition [2] of the same molecule?
The inhibition was 96.9%.

What about the IC50 [3] of the same molecule?
Its IC50 is 73 nM.

What about the inhibition at 10 µM [4] of the same molecule?
Its inhibition at 10 µM is 93.1%.

What about the IC50 [5] of the same molecule?
The IC50 was 2260 nM.

And the Activity [6]?
Its Activity is “Active”.

And the Cmax [7]?
The Cmax was 1270 ng/mL.

What about the half-life [8] of the same molecule?
Its half-life is 7.07 h.

And the Tmax [9]?
Its Tmax is 1.5 h.

What about the inhibition [10] of the same molecule?
Its inhibition is “Active”.

What about the IC50 [11] of the same molecule?
Its IC50 is 930 nM.

What about the inhibition [12] of the same molecule?
The inhibition was “Dose-dependent effect”.

What about the inhibition [13] of the same molecule?
The inhibition was “Dose-dependent effect”.

And the Activity [14]?
Its Activity is 3%.

And the viability at 5 µM [15]?
The viability at 5 µM was 79.6%.

What about the Activity [16] of the same molecule?
The Activity was 6.3%.

What about the Activity [17] of the same molecule?
Its Activity is 8.9%.

And the viability at 1 µM [18]?
Its viability at 1 µM is 79.5%.

And the Activity [19]?
The Activity was 0.9%.

And the Activity [20]?
The Activity was 16%.

And the Activity [21]?
The Activity was 25.3%.

What about the Activity [22] of the same molecule?
Its Activity is 1.7%.

And the Activity [23]?
The Activity was “Active”.

What about the inhibition [24] of the same molecule?
The inhibition was “Active”.

What about the inhibition [25] of the same molecule?
Its inhibition is 3.36%.

What about the inhibition [26] of the same molecule?
Its inhibition is 8.2%.

And the inhibition [27]?
The inhibition was 56.2%.

And the inhibition [28]?
Its inhibition is 4.4%.

What about the inhibition [29] of the same molecule?
Its inhibition is 9.31%.

And the inhibition [30]?
Its inhibition is 3.79%.

What about the inhibition [31] of the same molecule?
Its inhibition is -0.39%.
